# Results from patent US5948791A, “Quinoline derivatives for treating malaria” (Hoffmann-La Roche Inc., priority 1995, dated 1999).
# Like-named read-outs stand apart in the source and are kept apart here.
# Legend:
# [1] = tested on: Plasmodium falciparum strain NF54; assay: Growth inhibition of Plasmodium falciparum NF54 (chloroquine-sensitive) in vitro, [G-3H]-hypoxanthin incorporation; format: cell-based; conditions: read-out: IC50 for P. falciparum NF54
# Text: (§1) The ratio of the growth inhibition of a strain which is especially resistant to chloroquine and of a strain which is sensitive to chloroquine gives as the "resistance index" a measurement for the absence of a cross-resistance with chloroquine. Since, for all novel compounds the resistance index lies between 0.7 and 2.5, they inhibit the growth of sensitive as well as resistant strains of the malaria pathogen equally effectively. They are accordingly also suitable for the prophylaxis of a malaria disease and also for the treatment of a malaria disease even when chloroquine is ineffective. The good activity against malaria pathogens is also shown in animal experiments. The effective doses measured after oral and subcutaneous administration to mice infected with malaria pathogens are shown in Table 2 hereinafter.
# (§2) Test method for the determination of the activity against Plasmodium falciparum in vitro
# (§3) The preparations are tested on intraerythrocytary stages of Plasmodium falciparum from asynchronous cultures according to the method of Desjardin et al. (Desjardins, R. E. et al: Quantitative assessment of antimalarial activity in vitro by a semiautomated microdilution technique. Antimicrob. Agents Chemother. 16, 710-718, (1979)).
# (§4) The culture medium consists of RPMI 1640 with the addition of 25 mM HEPES, 25 mM NaHCO3, 100 μg/ml neomycin and […] (A^+). Human-A^+ erythrocytes are used as the Plasmodium falciparum host cells. The parasites are maintained at 37° C. in an atmosphere of 3% O2, 4% CO2, 93% N2 and 95% relative humidity.
# (§5) In order to determine the activity, the preparations are dissolved in DMSO, pre-diluted in the culture medium to a suitable starting concentration and subsequently titrated-out on to microtitre plates in the 2nd stage over 6-7 steps. After the addition of the parasite culture (0.7% parasitemia in 2.5% erythrocyte suspension) the test plates are incubated under the conditions given above for 72 h. The parasite growth in the different preparation concentrations is determined using [G-^3 H]-hypoxanthin incorporation compared to untreated control cultures on the same test plates. The 50% growth inhibition (IC50) is calculated according to logit regression analysis from the resulting dosage-activity curve.
# (§6) The preparations are tested on at least one chloroquine-resistant and one chloroquine-sensitive Plasmodium falciparum strain. Additional sensitive and resistant strains are included for further characterization.
# Plasmodium falciparum K1 = assay: Growth inhibition of Plasmodium falciparum K1 (chloroquine-resistant) in vitro, [G-3H]-hypoxanthin incorporation; format: cell-based, Plasmodium falciparum (strain K1); conditions: for IC50: Plasmodium falciparum, K1, 72 h, read-out: IC50 for P. falciparum K1; for Resistance index: ratio of the IC50 for K1 and the IC50 for NF54
# Text: as §1, §2, §3, §4, §5, §6
# Plasmodium berghei = assay: animal or person; format: in vivo, Plasmodium berghei (strain ANKA) in mice; conditions: Plasmodium berghei
# Protocol: Test method for the determination of the activity against Plasmodium berghei in vivo
# The preparations are tested on mice infected with malaria pathogens (Plasmodium berghei). Male albino mice (IBM:MORO(SPF), FUELLINSDORF) weighing about 25 g are used as the test animals. They are kept in climatized rooms at 21-22° C. in groups of 5 animals per cage. They receive ad libitum a diet feed with a low PABA content (NAFAG FUTTER " No. 9009 PAB-45, PABA content 45 mg/kg) and drinking water. On the first day of the test (D0) the test animals are infected with Plasmodium berghei (strain ANKA). For this there is used heparinized blood of a donor mouse with about 30% parasitemia, which is diluted with physiological saline such that it contains 10^8 parasitized erythrocytes per ml. 0.2 ml of this suspension is injected intravenously (i.v.) into the mice to be treated and into the control mice.
# The substances to be tested are dissolved or suspended in distilled water or in a mixture of 7% Tween 80, 3% alcohol (96%) and water. Usually, 0.25 ml of this solution or suspension is administered once subcutaneously and perorally to groups of 5 test animals. Treatment is effected 24 hours after the infection. 10 control animals are treated in the same manner with solvent or suspension medium per test.
# All substances are tested in a first test in a single dosage of 10 mg/kg. Only those substances which in this test (10 mg/kg) have shown a parasitaemia reduction of 90% are used for the titration. Suitable dilutions of the test substance can be used to obtain an accurate titration of the activity.
# 48 hours after the treatment (D+3) blood smears are prepared from all animals using blood from tail veins and are stained with giemsa. […] The difference in the average values of the infection rates of control group (100%) and treated groups is calculated and expressed as a percentage reduction (GI%). The ED50 or ED90 is determined mathematically by means of the JMP programme (nonlinear fit). The ED50 (ED90) in mg/kg is that dose which after single administration reduces the average erythrocyte infection rate by 50% (90%) in comparison to the control group.
# [2] = chloroquine-sensitive strain NF54, 72 h
# [3] = po, single peroral dose of 10 mg/kg, mice, blood smears 48 h after treatment, read-out: Growth inhibition in % after po administration (GI%, percentage reduction of the parasitemia)
# [4] = sc, single subcutaneous dose of 10 mg/kg, mice, blood smears 48 h after treatment, read-out: Growth inhibition in % after sc administration (GI%, percentage reduction of the parasitemia)
Compound,"IC50 ([1]; NF54, 72 h) [µg/mL]",IC50 (Plasmodium falciparum K1) [µg/mL],Resistance index (Plasmodium falciparum K1),"inhibition in vivo at 10 mg/kg (Plasmodium berghei; in Mus musculus, po, 48 h, read-out: Growth inhibition in % after po administration (GI%, percentage reduction of the parasitemia)) [%]","inhibition in vivo at 10 mg/kg (Plasmodium berghei; in Mus musculus, sc, 48 h, read-out: Growth inhibition in % after sc administration (GI%, percentage reduction of the parasitemia)) [%]","IC50 [1, 2] [µg/mL]",inhibition in vivo at 10 mg/kg (Plasmodium berghei; [3]) [%],inhibition in vivo at 10 mg/kg (Plasmodium berghei; [4]) [%]
"CCN(CC)CCCC(C)Nc1ccnc2cc(Cl)ccc12 (stereo not drawn) [Chloroquine diphosphate, reference compound]",0.0067,0.095,14.2,99.9,99.9,,,
"CC(C)(CNc1ccnc2cc(Cl)ccc12)NCc1ccc(Cl)c(Cl)c1 [Example 3, N1-(7-Chloro-quinolin-4-yl)-N2-(3,4-dichloro-benzyl)-2-methyl-propane-1,2-diamine]",,0.0183,1.3,,,0.0137,96,8
"CC(C)(CNc1ccnc2cc(Cl)ccc12)NCc1cccc(Cl)c1 [Example 4, N1-(7-Chloro-quinolin-4-yl)-N2-(3-chloro-benzyl)-2-methyl-propane-1,2-diamine]",,0.0088,1.0,,,0.0091,68,73
"CC(C)(CNc1ccnc2cc(Cl)ccc12)NCc1ccc(Cl)cc1Cl [Example 5, N1-(7-Chloro-quinolin-4-yl)-N2-(2,4-dichloro-benzyl)-2-methyl-propane-1,2-diamine]",,0.0572,1.2,,,0.0493,83,69
"CC(C)(CNc1ccnc2cc(Cl)ccc12)NCc1ccc(F)c(Cl)c1 [Example 6, N1-(7-Chloro-quinolin-4-yl)-N2-(3-chloro-4-fluoro-benzyl)-2-methyl-propane-1,2-diamine]",,0.0145,1.4,,,0.0103,99.7,95
"CC(C)(CNc1ccnc2cc(Cl)ccc12)NCc1ccc(Cl)c(C(F)(F)F)c1 [Example 7, N1-(7-Chloro-quinolin-4-yl)-N2-(4-chloro-3-trifluoromethyl-benzyl)-2-methyl-propane-1,2-diamine]",,0.0349,1.5,,,0.024,96,54
"CC(C)(CNc1ccnc2cc(Cl)ccc12)NCc1cccc(C(F)(F)F)c1 [Example 8, N1-(7-Chloro-quinolin-4-yl)-N2-(3-trifluoromethyl-benzyl)-2-methyl-propane-1,2-diamine]",,0.0189,1.2,,,0.0161,99,95
"CC(C)(CNc1ccnc2cc(Cl)ccc12)NCc1ccc(C(F)(F)F)cc1 [Example 9, N1-(7-Chloro-quinolin-4-yl)-N2-(4-trifluoromethyl-benzyl)-2-methyl-propane-1,2-diamine]",,0.0167,1.3,,,0.0132,66,74
"CC(C)(CNc1ccnc2cc(Cl)ccc12)NCc1cc(C(F)(F)F)cc(C(F)(F)F)c1 [Example 10, N1-(7-Chloro-quinolin-4-yl)-N2-(3,5-bis-trifluoromethyl-benzyl)-2-methyl-propane-1,2-diamine]",,0.0504,1.0,,,0.0517,99.2,99.3
"CC(C)(CNc1ccnc2cc(Cl)ccc12)NCc1ccncc1 [Example 11, N1-(7-Chloro-quinolin-4-yl)-N2-(pyridin-4-yl-methyl)-2-methyl-propane-1,2-diamine]",,0.048,1.6,,,0.0293,99.9,99.8
"CC(C)(CNc1ccnc2cc(Cl)ccc12)NCc1c(Cl)cccc1Cl [Example 12, N1-(7-Chloro-quinolin-4-yl)-N2-(2,6-dichloro-benzyl)-2-methyl-propane-1,2-diamine]",,0.197,2.3,,,0.0847,98,4
"Cl.Cl.Clc1ccc2c(N[C@H]3CC[C@@H](NCCc4ccccc4)CC3)ccnc2c1 [Example 13, cis-N1-(7-Chloro-quinolin-4-yl)-N4-phenethyl-cyclohexane-1,4-diamine dihydrochloride]",,0.0161,6.0,,,0.0027,99.9,99.9
"COc1cc(OC)c(CN[C@H]2CC[C@@H](Nc3ccnc4cc(Cl)ccc34)CC2)c(OC)c1.Cl.Cl [Example 14, cis-N1-(7-Chloro-quinolin-4-yl)-N4-(2,4,6-trimethoxy-benzyl)-cyclohexane-1,4-diamine dihydrochloride]",,0.0284,5.9,,,0.0048,100,100
"Cl.Cl.Clc1ccc2c(N[C@H]3CC[C@@H](NCc4c(Cl)cccc4Cl)CC3)ccnc2c1 [Example 15, cis-N1-(7-Chloro-quinolin-4-yl)-N4-(2,6-dichloro-benzyl)-cyclohexane-1,4-diamine dihydrochloride]",,0.0147,3.4,,,0.0043,,92
"COc1cccc(OC)c1CN[C@H]1CC[C@@H](Nc2ccnc3cc(Cl)ccc23)CC1.Cl.Cl [Example 16, cis-N1-(7-Chloro-quinolin-4-yl)-N4-(2,6-dimethoxy-benzyl)-cyclohexane-1,4-diamine dihydrochloride]",,0.017,8.5,,,0.002,99.8,99.9
"Cl.Cl.Clc1ccc2c(N[C@H]3CC[C@@H](NCc4c(Cl)ccc(Cl)c4Cl)CC3)ccnc2c1 [Example 17, cis-N1-(7-Chloro-quinolin-4-yl)-N4-(2,3,6-trichloro-benzyl)-cyclohexane-1,4-diamine dihydrochloride]",,0.0174,2.8,,,0.0064,32,87
"COc1cc(O)c(CN[C@H]2CC[C@@H](Nc3ccnc4cc(Cl)ccc34)CC2)c(OC)c1.Cl.Cl [Example 18, cis-2-{[4-(7-Chloro-quinolin-4-ylamino)-cyclohexylamino]-methyl}-3,5-dimethoxy-phenol dihydrochloride]",,0.021,3.8,,,0.0055,100,100
